Experimental data taken from US6755971B2, “Microbiological removal of bromine salts from fluid streams” (AKZO Nobel N.V., priority 1999, dated 2004).

Legend:
[1] = test system: micro-organisms immobilised on pumice particles; assay: Bacterial growth inhibition test with sulfite; format: cell-based; conditions: 5 days
Experimental: (§1) Batch experiments were conducted in 110 ml gas-tight glass vessels, which were filled with 10 ml of mineral medium. The gas-phase and the medium in the vessels were flushed with nitrogen. Hydrogen gas was supplied by injection of a known amount using a gas-tight syringe (up to 150 kPa). Vessels were incubated at 30° C. in a shaking water bath. Micro-organisms immobilised on pumice particles were withdrawn from the gas-lift reactor whenever steady state conditions were reached and washed twice with phosphate buffer (20 mM) before use. These immobilised micro-organisms were used to inoculate the cultures. Various salt concentrations in the batch cultures were obtained by adding various amounts of sodium chloride. Sodium sulfite was added to cultures in various amounts from a freshly prepared stock solution. The test vessels for the growth experiments were inoculated by injecting 5 ml of effluent from the reactor. The micro-organisms in the effluent were washed three times with phosphate buffer (20 mM) and concentrated to 0.5 ml by centrifugation (10,000 g, 15 min). 4.4 Analytical Procedures
Besides chlorate and […] the waste water also contains small amounts of hypochlorite. Since hypochlorite is a biocide, removal of this compound before biological treatment is necessary. Hypochlorite can be removed instantly from the waste water using sulfite as reductant. This procedure could be used prior to the biological treatment. To examine whether sulfite is toxic to micro-organisms immobilised on the pumice particles, a toxicity test was performed. Growth was determined after 5 days, and was compared to a control culture without sulfite. The growth was determined by measuring the formation of chloride.

[2] = test system: mixed culture; assay: Growth experiments with various carbon sources; format: cell-based; conditions: 24 mM substrate, 10 mM chlorate, 30° C., turbidity; further: key: ++: Extensive growth; +: Growth (based on turbidity of culture); +/−: Slight increase in turbidity
Experimental: Growth of the mixed culture with different carbon and energy sources was determined in 100 ml serum bottles with gas-tight caps filled up to 75% of their volume with mineral salts medium and 24 mM of the substrate and incubated at 30° C. Chlorate was added at a concentration of 10 mM. Growth was followed by determination of the turbidity (visually). The cultures were made anoxic by being flushed with nitrogen gas for approximately 5 minutes. Growth was followed for a maximum period of 2 months.

[3] = test system: micro-organisms immobilised on pumice particles; assay: Influence of high salt concentration on microbial activity (batch); format: cell-based
Experimental: as §1
The effect of increased salt concentration in the reactor was investigated in batch experiments. The activity of the micro-organisms immobilised on pumice particles in the batch experiment decreased only slightly with increasing salinity, as indicated in FIG. 19. […]

[4] = test system: chlorate-reducing mixed culture; conditions: up to a concentration of 12 mM, separate experiments
Experimental: These cultures were inoculated with 1 ml of an exponentially growing culture. […] These cultures were anaerobically incubated at 30° C. in a water bath. The turbidity was measured using a Nephelometer (Hack Ratio XR, Loveland, USA). The turbidity was plotted against time for each of the concentrations and the control. The growth was derived from the slope of the regression line in a plot of In OD 660 versus time. The percentage inhibition of the growth at each concentration was calculated. […] Confidence limits were calculated on the basis of Fieller's theorem. All computations were performed using a statistical software program (SAS, Cary, N.C., USA).
Growth was followed for approximately 8 hours.

Structure (SMILES) | Growth [2] | also measured
O=S([O-])[O-].[Na+].[Na+] [Sulfite, sodium sulfite] |  | Growth inhibition ([1]; sulfite 15 mg/l): 4%; Growth inhibition ([1]; sulfite 45 mg/l): 0%; Growth inhibition ([1]; sulfite 135 mg/l): 6%; Growth inhibition ([1]; sulfite 405 mg/l): 7%
CC(=O)O [acetate] | ++ | 
CCO [ethanol] | ++ | 
O=C(O)CCC(=O)O [succinate] | ++ | 
NCC(=O)O [glycine] | +/− | 
CC(O)C(=O)O (centres unmarked) [lactate] | + | 
[Cl-].[Na+] [sodium chloride] |  | effects of increased salinity on activity ([3]; 40 g/l): substantial; activity (chlorate reduction) relative to the maximum ([3]; concentration of 30 μl sodium chloride, unacclimatised micro-organisms): more than 80%
CCC(=O)O [propionate] | ++ | 
[O-][Cl+2]([O-])O [chlorate] |  | toxicity to the mixed culture [4]: not toxic
O=C(O)CC(O)C(=O)O (centres unmarked) [malate] | ++ | 
